From article PMC6028122, “Thermostabilization and purification of the human dopamine transporter (hDAT) in an inhibitor and allosteric ligand bound conformation” (PLoS ONE, 2018)

Molecular target: T1, human dopamine transporter (hDAT) (Homo sapiens, UniProt Q01959, I248Y)
T1 construct: gene SLC6A3; hDAT-I248Y expressed in HEK293S cells
Type: cell-based

T1 sequence (Q01959 whole entry I248Y): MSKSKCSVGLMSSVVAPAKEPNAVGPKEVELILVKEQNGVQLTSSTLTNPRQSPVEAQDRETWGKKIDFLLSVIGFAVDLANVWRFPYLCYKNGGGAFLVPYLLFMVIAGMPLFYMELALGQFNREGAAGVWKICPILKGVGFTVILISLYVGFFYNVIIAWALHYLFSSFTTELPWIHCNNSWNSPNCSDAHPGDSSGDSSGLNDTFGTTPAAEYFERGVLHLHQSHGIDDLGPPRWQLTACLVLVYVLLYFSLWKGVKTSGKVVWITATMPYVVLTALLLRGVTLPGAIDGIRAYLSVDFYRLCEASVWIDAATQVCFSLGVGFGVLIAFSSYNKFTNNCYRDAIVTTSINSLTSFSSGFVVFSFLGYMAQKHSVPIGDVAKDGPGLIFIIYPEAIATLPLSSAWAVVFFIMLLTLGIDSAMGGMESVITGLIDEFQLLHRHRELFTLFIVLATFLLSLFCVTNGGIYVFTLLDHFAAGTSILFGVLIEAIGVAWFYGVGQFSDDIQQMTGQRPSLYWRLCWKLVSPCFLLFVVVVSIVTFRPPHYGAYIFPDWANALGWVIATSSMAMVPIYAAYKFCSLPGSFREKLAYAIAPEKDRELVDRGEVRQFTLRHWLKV

NCCc1ccc(O)c(O)c1 [dopamine]
[3H]dopamine uptake in cells: the I248Y mutant was also able to transport dopamine (S2 Fig)
